The target of assay [1] is Histamine H3 receptor (Homo sapiens, UniProt Q9Y5N1). The assay can be described thus: Binding potency was determined by displacement of [3H]N-alpha-methyl histamine from cloned human histamine H3 receptor expressed in C6 cells. Format: cell-based.
Assay [2] deals with T1, Histamine H3 receptor (Rattus norvegicus, UniProt Q9QYN8). As to the kind of experiment: Binding potency was determined by displacement of [3H]N-alpha-methyl histamine from histamine H3 receptor of rat cortical membranes. Format: cell membranes, Membrane. On the technique in general: Displacement assays read how much labelled ligand stays bound in the presence of the test substance.
T1 sequence (Q9QYN8 whole entry): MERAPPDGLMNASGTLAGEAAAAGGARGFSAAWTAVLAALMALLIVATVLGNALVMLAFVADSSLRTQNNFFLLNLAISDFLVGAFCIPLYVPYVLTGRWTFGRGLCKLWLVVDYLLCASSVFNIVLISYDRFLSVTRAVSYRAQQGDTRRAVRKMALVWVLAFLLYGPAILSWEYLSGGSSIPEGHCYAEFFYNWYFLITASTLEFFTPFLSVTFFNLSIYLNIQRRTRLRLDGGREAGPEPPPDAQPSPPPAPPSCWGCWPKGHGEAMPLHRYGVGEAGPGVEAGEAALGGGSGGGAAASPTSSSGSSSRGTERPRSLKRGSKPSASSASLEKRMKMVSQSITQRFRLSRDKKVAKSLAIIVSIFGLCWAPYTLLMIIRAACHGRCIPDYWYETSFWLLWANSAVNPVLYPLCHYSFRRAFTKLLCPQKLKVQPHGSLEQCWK

Assay [3] addresses T1, Histamine H3 receptor. The assay can be described thus: Binding potency by displacement of [3H]N-alpha-methyl histamine from histamine H3 receptor of rat cortical membranes. Format: cell membranes, Membrane.
In assay [4] the target is T1, Histamine H3 receptor. As to the kind of experiment: pBinding potency by displacement of [3H]N-alpha-methyl histamine from histamine H3 receptor of rat cortical membranes. Format: cell membranes, Membrane.

pKi: −log10 of the molar value.

Chain of Histamine H3 receptor (Homo sapiens, UniProt Q9Y5N1) (Q9Y5N1 whole entry): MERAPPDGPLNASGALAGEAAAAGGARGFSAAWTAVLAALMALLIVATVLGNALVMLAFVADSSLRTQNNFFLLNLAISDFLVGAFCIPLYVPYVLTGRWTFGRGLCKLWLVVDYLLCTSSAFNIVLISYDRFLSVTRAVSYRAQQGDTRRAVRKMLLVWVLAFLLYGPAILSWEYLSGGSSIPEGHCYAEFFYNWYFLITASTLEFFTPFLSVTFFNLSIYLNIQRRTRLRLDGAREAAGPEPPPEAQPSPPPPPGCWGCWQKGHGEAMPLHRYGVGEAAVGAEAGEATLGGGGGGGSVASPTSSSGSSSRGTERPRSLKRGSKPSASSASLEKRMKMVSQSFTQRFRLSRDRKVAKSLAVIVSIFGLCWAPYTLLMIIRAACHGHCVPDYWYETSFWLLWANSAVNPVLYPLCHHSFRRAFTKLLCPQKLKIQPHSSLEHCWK

Broadly, the pKi is −log10 of the Ki, conventionally taken in molar units. A high value points to a small Ki. With `CC1CCN(CCc2cc3cc(-c4ccc(C(=O)N5CCOCC5)cc4)ccc3o2)CC1`, the pKi at Histamine H3 receptor [1] is 7.77.
Regarding `CC1CCN(CCc2cc3cc(-c4ccc(C#N)cc4)ccc3o2)CC1`, the negative logarithm of the Ki (pKi) on Histamine H3 receptor [2] was 7.80; on Histamine H3 receptor [1], 7.82.
Regarding `N#Cc1ccc(-c2ccc3oc(CCN4CCC[C@@H]4CC(=O)O)cc3c2)cc1`, the pKi at Histamine H3 receptor [2] is 5.80; at Histamine H3 receptor [1], 6.49.
Taken in the same sequence, the figures for `C[C@@H]1CCCN1CCc1cc2cc(-c3ccc(C(=O)N4CCOCC4)cn3)ccc2o1` were 8.80 and 9.26.
With `CN(C)[C@H]1CCN(CCc2cc3cc(-c4ccc(C#N)cc4)ccc3o2)C1`, the pKi on Histamine H3 receptor [2] is 6.85; at Histamine H3 receptor [1] it was 7.31.
Take `N#Cc1ccc(-c2ccc3oc(CCN4CCC[C@@H]4CO)cc3c2)cc1`: the negative-log Ki (pKi) at Histamine H3 receptor [1] is 7.74.
Consider `O=C(c1ccc(-c2ccc3oc(CCN4CCC[C@@H]4CO)cc3c2)nc1)N1CCOCC1`, for which the pKi on Histamine H3 receptor [2] was 6.96; on Histamine H3 receptor [1], 7.44.
Turning to `CC1CCN(CCc2cc3cc(-c4ccc(C(=O)N5CCOCC5)cn4)ccc3o2)CC1`, the pKi on Histamine H3 receptor [2] was 6.82; at Histamine H3 receptor [1], 7.06.
As for `C[C@@H]1CCC[C@H](C)N1CCc1cc2cc(-c3ccc(C(=O)N4CCOCC4)cn3)ccc2o1`, the negative logarithm of the Ki (pKi) is 7.35 at Histamine H3 receptor [2], 8.25 on Histamine H3 receptor [1] and 7.35 at Histamine H3 receptor [3].
For `C[C@@H]1CCC[C@H](C)N1CCc1cc2cc(-c3ccc(C(=O)N4CCOCC4)cc3)ccc2o1`, the negative logarithm of the Ki (pKi) on Histamine H3 receptor [2] was 8.18; on Histamine H3 receptor [1], 8.92.
For `O=C(c1ccc(-c2ccc3oc(CCN4CCCCC4)cc3c2)cc1)N1CCOCC1`, the negative logarithm of the Ki (pKi) on Histamine H3 receptor [2] was 8.21; at Histamine H3 receptor [1], 8.64.
Regarding `C[C@@H]1CC[C@@H](C)N1CCc1cc2cc(-c3ccc(C(=O)N4CCOCC4)cc3)ccc2o1`, the negative logarithm of the Ki (pKi) on Histamine H3 receptor [1] was 8.66.
With `CN(C)[C@@H]1CCN(CCc2cc3cc(-c4ccc(C#N)cc4)ccc3o2)C1`, the values for the negative-log Ki (pKi) at Histamine H3 receptor [2] and at Histamine H3 receptor [1] were 7.20 and 7.80, respectively.
On the same counts, the results for `O=C(c1ccc(-c2ccc3oc(CCN4CCCCCC4)cc3c2)nc1)N1CCOCC1` are 7.48 and 7.80.
For `O=C(c1ccc(-c2ccc3oc(CCN4CCC(O)C4)cc3c2)nc1)N1CCOCC1` (stereo unspecified), the pKi on Histamine H3 receptor [1] is 7.92.
In turn, `N#Cc1ccc(-c2ccc3oc(CCN4CCC[C@H]4CO)cc3c2)cc1` showed a negative logarithm of the Ki (pKi) at Histamine H3 receptor [1] of 8.66.
In the case of `O=C(c1ccc(-c2ccc3oc(CCN4CC=CCC4)cc3c2)cc1)N1CCOCC1`, the figures for the negative-log Ki (pKi) at Histamine H3 receptor [2] and on Histamine H3 receptor [1] were 7.77 and 8.23, respectively.
`CC1CCCCN1CCc1cc2cc(-c3ccc(C(=O)N4CCOCC4)cc3)ccc2o1` (stereo unspecified): the pKi at Histamine H3 receptor [2] was 7.85; on Histamine H3 receptor [1], 8.52.
Taken in the same sequence, the figures for `N#Cc1ccc(-c2ccc3oc(CCN4CC=CCC4)cc3c2)cc1` were 7.30 and 8.00.
Taken in the same sequence, the figures for `O=C(c1ccc(-c2ccc3oc(CCN4CCCCC4)cc3c2)nc1)N1CCOCC1` were 7.31 and 7.92.
On to `O=C(c1ccc(-c2ccc3oc(CCN4CCOCC4)cc3c2)cc1)N1CCOCC1`, for which the pKi on Histamine H3 receptor [2] is 6.80; at Histamine H3 receptor [1] it was 7.35.
With `CC1CCCCN1CCc1cc2cc(-c3ccc(C#N)cc3)ccc2o1` (stereo unspecified), on Histamine H3 receptor [1], the negative logarithm of the Ki (pKi) is 8.24.
In the case of `N#Cc1ccc(-c2ccc3oc(CCN4CCC(O)C4)cc3c2)cc1` (stereo unspecified), the negative-log Ki (pKi) on Histamine H3 receptor [2] was 7.02; at Histamine H3 receptor [1], 8.06.
For `C[C@@H]1CC[C@@H](C)N1CCc1cc2cc(-c3ccc(C#N)cc3)ccc2o1`, the negative logarithm of the Ki (pKi) on Histamine H3 receptor [2] is 7.38; at Histamine H3 receptor [1], 8.29.
On Histamine H3 receptor [1], `N#Cc1ccc(-c2ccc3oc(CCN4CCCCC4)cc3c2)cc1` had a pKi of 8.06.
`N#Cc1ccc(-c2ccc3oc(CCn4ccnc4)cc3c2)cc1`: the negative-log Ki (pKi) at Histamine H3 receptor [1] was 6.22.
Consider `C[C@@H]1CCC[C@H](C)N1CCc1cc2cc(-c3ccc(C#N)cc3)ccc2o1`, for which the negative-log Ki (pKi) at Histamine H3 receptor [2] is 7.66; on Histamine H3 receptor [1], 8.62.
On the same counts, the results for `O=C(c1ccc(-c2ccc3oc(CCN4CC[C@@H](O)C4)cc3c2)cc1)N1CCOCC1` are 7.46 and 8.21.
Turning to `O=C(c1ccc(-c2ccc3oc(CCN4CCC[C@H]4CO)cc3c2)cc1)N1CCOCC1`, the negative logarithm of the Ki (pKi) at Histamine H3 receptor [2] is 8.16; on Histamine H3 receptor [1], 8.72.
At Histamine H3 receptor [1], `O=C(c1ccc(-c2ccc3oc(CCN4CCCCCC4)cc3c2)cc1)N1CCOCC1` had a pKi of 8.46.
Same read-out and setting: the figure for `N#Cc1ccc(-c2ccc3oc(CCN4CCCCCC4)cc3c2)cc1` is 8.11.
As to `C[C@@H]1CC[C@@H](C)N1CCc1cc2cc(-c3ccc(C(=O)N4CCOCC4)cn3)ccc2o1`, the pKi was 7.59 at Histamine H3 receptor [2] and 8.23 on Histamine H3 receptor [1].
On the same counts, the results for `O=C(c1ccc(-c2ccc3oc(CCN4CCCC4)cc3c2)nc1)N1CCOCC1` are 7.54 and 8.41.
Consider `C[C@@H]1CCCN1CCc1cc2cc(-c3ccc(C(=O)N4CCOCC4)cc3)ccc2o1`, for which the pKi at Histamine H3 receptor [2] was 8.71; at Histamine H3 receptor [1], 9.15; at Histamine H3 receptor [4], 8.70.
Regarding `O=C(c1ccc(-c2ccc3oc(CCN4CCOCC4)cc3c2)nc1)N1CCOCC1`, the pKi on Histamine H3 receptor [2] was 6.59.

For the origin of these results see ChEMBL document CHEMBL1147428, “A new class of potent non-imidazole H(3) antagonists: 2-aminoethylbenzofurans” (Bioorg Med Chem Lett, 2004).
